US20190053490A1, “USE OF ACTIVE SUBSTANCES FOR CONTROLLING VIRUS INFECTION IN PLANTS” (Bayer CropScience Aktiengesellschaft, priority 2016, published 2019)

Key:
[1] = tested on: ABA-dependent gene expression and ABA-induced stomatal closure; settings: in vivo; cited from earlier work
[2] = tested on: Turnip crinkle virus (TCV); assay: Antiviral efficacy against TCV; type: in vivo; settings: 100 ppm
Source text: (§1) Similar results were obtained with DFPM with the unrelated viruses Turnip crinkle virus (TCV,) and Cauliflower mosaic virus (CaMV). The TCV belongs to the Tombusviridae family and infects various types of plant species including the common plant models A. thaliana and N. benthamiana. Its genome is another example of +strand RNA virus. The CaMV belongs to the Caulimoviridae family. It infects mostly Brassicaceae such as turnip and cabbage, but is also able to infect A. thaliana. CaMV consists of a double-stranded DNA molecule.

[3] = tested on: PHYTOALEXIN DEFICIENT4 (PAD4) and ENHANCED DISEASE SUSCEPTIBILITY1 (EDS1); settings: in vivo; cited from earlier work
[4] = tested on: RNA silencing pathway (SULPHUR transcript) in SUC-SUL Arabidopsis reporter plants; assay: SUC-SUL Arabidopsis reporter plants, percentage of chlorosis (seedlings); type: in vivo, A. thaliana; settings: 300 ppm spray, seedlings five days post-germination, assessed 14 days after treatment
Source text: The plants' RNA silencing pathway can be easily monitored with certain artificially-created reporter plants called the “SUC-SUL Arabidopsis reporter plants” (Dunoyer et al., Nat. Genet. 37, 1356-1360, 2005). The SUC-SUL Arabidopsis reporter plants are transgenic plants expressing an inverted-repeat (IR) double-stranded RNA designed to target the SULPHUR (SUL) transcript in the vasculature under the control of the SUC2 promoter (Truernit et al., Planta 196(3), 564-570, 1995). Once expressed, the dsRNA is processed into small interfering RNAs directing non-cell autonomous post-transcriptional gene silencing of the SULPHUR transcript, in turn causing vein-centered chlorosis. Since the observed chlorosis results from the silencing of the SULPHUR transcript, an expansion of the chlorosis, observable directly on the plants, is correlated with an intensification of the RNA silencing pathway at the molecular level. […] The effects of the treatments on the SUC-SUL reporter plants were assessed 14 days after treatment under trans-illumination and digitally recorded with a stereo-microscope by measuring the surface and intensity of the chlorotic zone (percentage of chlorosis). […]

[5] = tested on: Bean pod mottle virus (BPMV-GFP); assay: Antiviral efficacy against BPMV-GFP on soybean plants; type: in vivo; settings: seven days-post-infection
Method: The Bean pod mottle virus (BPMV) is a plant pathogenic virus of the family Comoviridae. This virus infects legumes and more particularly soybean. BPMV genome consists of a bipartite positive-sense single-stranded RNA molecule (+ssRNA). The antiviral efficacy of silencing enhancers was tested with a fluorescently-tagged comoviruss (BPMV-GFP) in order to specifically pinpoint when and where the effect of the molecules is induced during virus primary infection, local or systemic spread.
Soybean plants were sprayed with 100 or 200 ppm of DFPM and emulsifiable concentrate (EC) Premix one day before to infect the plants with the BPMV-GFP virus. Twelve replicates were used for each condition.

[6] = tested on: Cauliflower mosaic virus (CaMV); assay: Antiviral efficacy against CaMV; type: in vivo; settings: 100 ppm
Source text: as §1

[7] = tested on: RNAi pathway (SUL transcript, SUL protein, SUL siRNAs) in SUC-SUL Arabidopsis plants; assay: Molecular confirmation in four-week-old SUC-SUL Arabidopsis plants; type: in vivo; settings: 200 ppm spray, seven days after treatment
Source text: The enhancing effect of DFPM on the RNAi machinery has been validated at the phenotypic and molecular levels. Four-week-old SUC-SUL Arabidopsis plants at rosette stage were sprayed with DFPM at 200 ppm. […] The plant aerial tissues were collected and analyzed molecularly using state-of-the-art methodologies. […] Furthermore, these effects were associated with an over-accumulation of both SUL 21-nt and 24-nt long siRNAs derived from the transgenic SUL.

[8] = tested on: Turnip mosaic virus (TuMV-GFP); assay: Antiviral efficacy against TuMV-GFP on Arabidopsis; type: in vivo; settings: 100 or 200 ppm sprayed 3 days before infection
Method: The Turnip mosaic virus (TuMV) belongs to the Potyviridae, the largest family of known plant viruses. This virus infects a wide range of plants, in particular Brassicaceae. TuMV genome consists of a positive-sense single-stranded RNA molecule (+ssRNA). The antiviral efficacy of DFMP was tested with a fluorescently-tagged potyvirus (TuMV-GFP) in order to specifically pinpoint when and where the effect of the molecules is induced during virus primary infection, as well as its local or systemic spread.
Arabidopsis plants were sprayed with 100 or 200 ppm of DFMP 3 days before infecting the plants with the TuMV-GFP virus. Virus titers were measured by qPCR and/or virus protein accumulation on Western blot analyses and by counting the number of primary infection foci under UV light in the case of the TuMV-GFP.

[9] = tested on: Pseudomonas syringae pv tabaci; settings: cited from earlier work
[10] = tested on: tobacco mosaic virus (TMV); settings: cited from earlier work
[11] = tested on: SA-inducible pathogenesis-related (PR)-1 proteins; settings: infiltrated leaves; cited from earlier work
[12] = 100 ppm sprayed one day before infection
[13] = 200 ppm sprayed one day before infection

**Q.** For `S=C(c1ccc(-c2ccc(Cl)c(Cl)c2)o1)N1CCCCC1` [DFPM, [5-(3,4-Dichlorophenyl)Furan-2-yl]-Piperidin-1-ylMethanethione], which “ABA-dependent gene expression in plant” value [1] is on record?
**A.** rapidly downregulates

**Q.** And the ABA-induced stomatal closure [1]?
**A.** inhibits

**Q.** And the “virus accumulation on inoculated leaves and systemic tissues (TCV-derived P38 mRNA)” value [2]?
**A.** strong reduction

**Q.** What about the “expression of plant defense-related genes including PAD4 and EDS1” value [3] of the same compound?
**A.** stimulates

**Q.** What about the percentage of chlorosis [4] of the same compound?
**A.** significant increase

**Q.** And the “BPMV fluorescence on soybean” value ([5]; 100 or 200 ppm)?
**A.** clear reduction

**Q.** What about the “number of plants showing BPMV symptoms” value ([5]; 100 or 200 ppm) of the same compound?
**A.** clear reduction

**Q.** What about the “Average of Percentage of BPMV fluorescence” value [5, 12] of the same compound?
**A.** 31%

**Q.** What about the “Percentage of plants showing BPMV symptoms” value [5, 12] of the same compound?
**A.** 55%

**Q.** And the “Average of Percentage of BPMV fluorescence” value [5, 13]?
**A.** 8%

**Q.** What about the “Percentage of plants showing BPMV symptoms” value [5, 13] of the same compound?
**A.** 10%

**Q.** And the “virus accumulation on inoculated leaves and systemic tissues (CaMV-derived P6 mRNA)” value [6]?
**A.** strong reduction

**Q.** What about the “SUL 21-nt and 24-nt long siRNAs” value ([7]; aerial tissues) of the same compound?
**A.** over-accumulation

**Q.** What about the “SUL protein levels (Western blot)” value ([7]; aerial tissues) of the same compound?
**A.** reductions in SUL protein levels

**Q.** And the “SUL transcript levels (real-time qRT-PCR, FIG. 1)” value ([7]; aerial tissues)?
**A.** reductions in SUL transcript levels

**Q.** What about the “RNAi-dependent vein-centered chlorotic phenotype” value ([7]; vs DMSO only) of the same compound?
**A.** clear expansion

**Q.** What about the “virus accumulation on inoculated leaves (infection foci, FIG. 2)” value ([8]; five days post-infection) of the same compound?
**A.** strong reduction

**Q.** What about the “accumulation of virus titers” value ([8]; five days-post-infection) of the same compound?
**A.** clear reduction

**Q.** What about the “virus accumulation on systemic tissues (TuMV-derived HcPro mRNA levels, FIG. 3)” value ([8]; six days post-infection) of the same compound?
**A.** strong reduction

**Q.** With `COC(=O)N(OC)c1ccccc1COc1ccn(-c2ccc(Cl)cc2)n1` [Pyraclostrobin] as the compound, how does the “resistance of tobacco against infection by Pseudomonas syringae pv tabaci” value [9] read?
**A.** enhance the resistance

**Q.** What about the “TMV resistance in NahG transgenic tobacco plants” value ([10]; NahG transgenic tobacco unable to accumulate salicylic acid) of the same compound?
**A.** able to enhance TMV resistance

**Q.** And the “resistance of tobacco against infection by TMV” value ([10]; tobacco)?
**A.** enhance the resistance

**Q.** And the “accumulation of SA-inducible PR-1 proteins” value [11]?
**A.** did not cause the accumulation
